Laboratory results published in US20030161893A1, “PTPase inhibitors and methods of using the same” (priority 2001, published 2003).

Assays:
[1] = test system: TF-1 cells; assay: TF-1 cell proliferation assay; type: cell-based, human
Method: The murine hematopoietic cell line Baf3 was maintained in RPMI 1640 medium supplemented with 10% fetal calf serum (FCS) and murine IL-3 (20 units/ml) as described previously in Damen et al., J. Biol. Chem. 270, 23402 (1995). Human myeloid cell line TF-1 was maintained in RPMI 1640 supplemented with 10% FCS and 40 ng/ml of recombinant human GM-CSF as described previously in Thomassen et al., Clin. Immunol. 95, 85 (2000). For cell proliferation assays, cells were washed in 10% FCS medium twice, resuspended in 10% FCS medium, incubated at 37° C. for 16 hours, and then cultured at 37° C. in 10% FCS medium containing various amounts of cytokines, sodium stibogluconate, or potassium antimonyl tartrate for 3-6 days as indicated. The cell numbers in proliferation assays were determined by an MTT assay or by microscopic cell counting as indicated.

[2] = test system: AML-3 cells; assay: AML-3 cell differentiation; type: cell-based, human
[3] = test system: C42 cells; assay: Cell proliferation assay (MTT), C42 prostate cancer cells; type: cell-based, human
Method: For cell proliferation assays, cells were grown in 10% FCS culture medium containing various amounts of IFNs and/or sodium stibogluconate in 96 well plates and cultured at 37° C. for 3 or 6 days as indicated. The numbers of viable cells in proliferation assays were determined by MTT assays as described in Phatak et al., J. Immunol. 167, 3391 (2001).

[4] = test system: Stat1; assay: IFN-alpha-induced Stat1 tyrosine phosphorylation, DR cells; type: cell-based, human
Method: For induction of Stat1 tyrosine phosphorylation by IFN-alpha in the absence or presence of sodium stibogluconate, cells grown in 10% FCS RPMI 1640 medium at 37° C. were stimulated with IFN-alpha (50 u/ml) for various time points and treated with or without sodium stibogluconate for 5 minutes prior to termination by lysing the cells in cold lysis buffer (1% NP-40; 50 mM Tris, pH 7.4; 100 mM NaCl; 1 mM EDTA, 10% glycerol, 10 mM sodium molybdic acid and 4 mM AEBSF).
Cell lysates were prepared by lysing cells in cold lysis buffer for 30 min and cleared by centrifuging at 14,000 rpm at 4° C. for 15 min. For SDS-PAGE, cell lysates were mixed with equal volume of 2×SDS-PAGE sample buffer, heated at 90° C. for 5 min and separated in 10% SDS-PAGE gels. Cellular proteins in SDS-PAGE gels were transferred to nitrocellulose membrane (Schleicher & Schuell, Keene, N.H.), blocked in 5% milk, probed with antibodies and detected by using an enhanced chemiluminescence kit (ECL, Amersham, Arlington Heights, Ill.).

[5] = Tolerability in nude mice (viability, body weight, organs); type: in vivo
Method: Nude mice bearing WM9 or DU145 xenografts were treated with IFN-alpha (500,000 U, s.c., daily), sodium stibogluconate (12 mg Sb, s.c., daily) or both. […] The dosage of sodium stibogluconate corresponds to approximately 440 mg Sb/kg body weight (average mouse body weight 27 g), substantially higher than the standard therapeutic dose of 20 mg Sb/kg and the high dose (143 mg Sb/kg) that was clinically used by accident without serious toxicity. This dose of sodium stibogluconate was based on a previous observation in a pilot study that mice could tolerate daily dose of 20 mg Sb (approximately 700-800 mg Sb/kg). An observation that the effect of sodium stibogluconate in inhibiting the growth of the cancer cell lines in vitro was dose-dependent with complete or near complete killing of the cancer cells at […] (or 100 ug Sb/kg) was also considered. In light of the relatively rapid rate of clearance of the drug in vivo, 440 mg Sb/kg dosage was used to ensure the detection of the effectiveness of the drug for this initial study.
As discussed above, the dosage of sodium stibogluconate used for the treatment of nude mice was 12 mg Sb/mouse, s.c., daily (or approximately 440 mg/kg body weight). This dosage is much higher than the standard dose for leishmaniasis (20 mg Sb/kg, daily). As an initial step to assess the toxicity of such a high dosage of sodium stibogluconate in nude mice, the effect of sodium stibogluconate on the viability and body weights of WM9 xenografts nude mice during the 25 day period of the study was determined.
Athymic nude mice (nu/nu, NCR), 4 weeks old (Taconic), were inoculated (s.c.) in the flanks with DU145 cells (3×10^6 cells/site) on day 0. Starting on day 2, the mice were subjected to no treatment (Control) or treatment with sodium stibogluconate (12 mg, s.c., daily, […], at the hip area). The dosage of sodium stibogluconate used in the study was similar to the effective daily dose of sodium stibogluconate for the treatment of murine leishmaniasis (Murray, et al. 1988). Tumor volume was measured and calculated using the formula for a prolate spheroid (V=4/3 7 a^2b) (Lindner, et al. 1997). Hematoxylin+Eosin (H.E.) stained tissue sections of internal organs and tumor inoculation sites tissues of the mice were prepared and subjected microscopic evaluation.

Compound: O.O.O.O.O.O.O.O.O.O=C([O-])[C@@H]1[O][Sb]2([O-])([O][Sb]34([OH])[O][C@H]([C@H](O)CO)[C@H]([O]3)[C@H](C(=O)[O-])[O]4)[O][C@H]([C@H](O)CO)[C@@H]1[O]2.[Na+].[Na+].[Na+] [sodium stibogluconate]
- GM-CSF-induced proliferation of TF-1 cells ([1]; 50 μg/ml, GM-CSF 5-40 ng/ml): augmented
- growth inhibition activity of IFN-alpha in TF-1 cells in presence of drug ([1]; 50 μg/ml, with GM-CSF): enhanced
- effect of low doses on GM-CSF-induced TF-1 growth ([1]; 12.5-50 μg/ml): no negative effect on GM-CSF-induced cell growth
- differentiation of AML-3 cells [2]: inducing differentiation
- sensitivity of C42 cells [3]: highly resistant
- IFN-alpha-induced Stat1 tyrosine phosphorylation versus control ([4]; 10 μg/ml, 30 min post-stimulation): two folds greater than control
- Stat1 tyrosine phosphorylation by drug alone ([4]; absence of IFN-alpha): failed to induce Stat1 tyrosine phosphorylation
- tolerability at the dosage used ([5]; 12 mg Sb daily (440 mg Sb/kg daily)): well tolerated with no serious side effects
- survival of DU145 tumor mice ([5]; 440 mg/kg daily): survived until the end of the study
- histology of major organs ([5]; 440 mg/kg daily, DU145 tumor mice): unremarkable
- tolerated daily dose in mice (pilot study) ([5]; approximately 700-800 mg Sb/kg): 20 mg Sb
- survival of WM9 xenograft nude mice ([5]; day 25, 4 mice/group): survived until the end of the study
